Values of other authors as cited in US20060173046A1, “Hydroxypyridine cgrp receptor antagonists” (priority 2003, published 2006).
Ends that are not written are not given here.

How the values were obtained:
marmoset = conditions: electrical stimulation of the trigeminal ganglion
rats = conditions: electrical stimulation of the dura mater, prior administration
rat = conditions: trigeminal ganglion stimulation

Molecule | increase in facial blood flow (marmoset) | increase of the diameter of the middle meningeal artery (rats) | increased facial blood flow (rat)
NCCCC[C@H](NC(=O)[C@@H](Cc1cc(Br)c(O)c(Br)c1)NC(=O)N1CCC(N2Cc3ccccc3NC2=O)CC1)C(=O)N1CCN(c2ccncc2)CC1 [BIBN4096BS] | blocked | – | –
CGRP(8-37): a peptide CGRP antagonist (VTHRLAGLLSRSGGVVKNNFVPTNVGSKAF; ends and bridges not checked; UniProt P06881 90-119, looked up, fragment) | – | blocked | inhibited
